For one experiment, the target named is EZH2 (Homo sapiens, UniProt Q15910). Put plainly: AlphaLISA enzyme activity inhibition, EZH2. The experiment is classed as biochemical. Conditions: 5nM test substance. In outline:
(§1)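 EZH1 or EZH2 was mixed with compound at 5 nM or 10 nM final in 20 mM Tris pH 8.0, 0.1% BSA, 0.5 mM DTT, then histone H3 peptide and SAM were added. After 2 h reaction, AlphaLISA acceptor and donor beads detected methylation; inhibition rate was calculated against DMSO control.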
A general note: Alpha assays give light when donor and acceptor beads are brought close together.

In another experiment the test system is MKN-45 cells. The experiment is described as follows: Cancer cell proliferation inhibition (Cell Counting Kit-8), gastric cancer cell line. The format is cell-based. Conditions: Homo sapiens, MKN-45, 264 h, 1000 nM, cultured seven to 11 days; read-out: % inhibition rate MKN -45. In outline: (§2)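 Cells grown in RPMI1640, McCoy's 5a, L-15 or DMEM with 10% FBS, seeded at 100 to 1,000 cells/well and treated with test substance at 1000 nM for 7 to 11 days. Viability read by CCK-8; % inhibition = {1−(test/control)} × 100.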

The next experiment relates to Lovo cells. The experiment is described as follows: Cancer cell proliferation inhibition (Cell Counting Kit-8), colorectal cancer cell line. The format is cell-based. Conditions: Homo sapiens, LoVo, 264 h, 1000 nM, cultured seven to 11 days; read-out: % inhibition rate LoVo. In outline:
(§3)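 Single-concentration growth test: compound at 1000 nM was applied to cells seeded at 100 to 1,000 per well and cultured seven to 11 days. Proliferation was then quantified with Cell Counting Kit-8, and percent inhibition was taken relative to control wells.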

The next experiment deals with SW-13 cells. The experiment is described as follows: Cancer cell proliferation inhibition (Cell Counting Kit-8), adrenal cancer cell line. The experiment is classed as cell-based. Particulars: Homo sapiens, SW13, 264 h, 1000 nM, cultured seven to 11 days; read-out: % inhibition rate SW-13. In outline: as §3
The target of the next experiment is EZH1 (Homo sapiens, UniProt Q92800). The experiment is described as follows: AlphaLISA enzyme activity inhibition, EZH1. The format is biochemical. Conditions: 5nM test substance. Put shortly:
as §1

The next experiment concerns G401 cells. The experiment is described as follows: Cancer cell proliferation inhibition (Cell Counting Kit-8), rhabdoid tumor cell line. Particulars: Homo sapiens, G-401, 264 h, 1000 nM, cultured seven to 11 days; read-out: % inhibition rate G401. The format is cell-based. In outline: as §2
For orientation: Tetrazolium assays rely on reduction of a dye to a coloured formazan, in cell work by metabolically active cells.

Another experiment deals with MIA-PaCa-2 cells. The experiment is described as follows: Cancer cell proliferation inhibition (Cell Counting Kit-8), pancreatic cancer cell line. The format is cell-based. Conditions: Homo sapiens, MIA PaCa-2, 264 h, 1000 nM, cultured seven to 11 days; read-out: % inhibition rate MIA-Paca2. In outline: as §3
A further experiment concerns NCI-H1299 cells. Put plainly: Cancer cell proliferation inhibition (Cell Counting Kit-8), lung cancer cell line. The format is cell-based. Particulars: Homo sapiens, NCI-H1299, 264 h, 1000 nM, cultured seven to 11 days; read-out: % inhibition rate NCI-H129 9. Put shortly: as §3

The values below come from patent EP4740948A1 (Dong Wha Pharm. Co., Ltd., priority 2023, dated 2025).

The structures appear in SMILES notation.

Sequence of EZH1 (Q92800 whole entry, species assumed): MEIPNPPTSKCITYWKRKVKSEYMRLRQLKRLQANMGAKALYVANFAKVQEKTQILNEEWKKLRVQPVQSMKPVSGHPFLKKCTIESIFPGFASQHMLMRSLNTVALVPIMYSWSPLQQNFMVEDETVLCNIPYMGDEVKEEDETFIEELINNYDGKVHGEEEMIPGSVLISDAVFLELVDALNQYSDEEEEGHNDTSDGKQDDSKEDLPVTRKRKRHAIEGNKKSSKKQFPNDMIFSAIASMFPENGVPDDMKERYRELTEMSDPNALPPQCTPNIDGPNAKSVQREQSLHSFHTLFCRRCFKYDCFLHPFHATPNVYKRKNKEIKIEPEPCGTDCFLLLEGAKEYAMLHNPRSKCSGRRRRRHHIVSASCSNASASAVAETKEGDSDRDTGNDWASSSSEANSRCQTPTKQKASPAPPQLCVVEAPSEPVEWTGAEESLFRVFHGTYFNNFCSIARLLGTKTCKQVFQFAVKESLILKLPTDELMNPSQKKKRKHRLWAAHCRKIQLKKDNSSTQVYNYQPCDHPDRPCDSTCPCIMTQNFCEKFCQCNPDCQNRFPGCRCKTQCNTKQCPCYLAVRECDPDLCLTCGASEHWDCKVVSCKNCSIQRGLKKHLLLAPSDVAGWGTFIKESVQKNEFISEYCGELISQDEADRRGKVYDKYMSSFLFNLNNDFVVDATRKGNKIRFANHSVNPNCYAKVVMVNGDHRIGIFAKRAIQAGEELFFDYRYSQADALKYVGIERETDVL
Sequence of EZH1 (O75530 whole entry partner, species assumed): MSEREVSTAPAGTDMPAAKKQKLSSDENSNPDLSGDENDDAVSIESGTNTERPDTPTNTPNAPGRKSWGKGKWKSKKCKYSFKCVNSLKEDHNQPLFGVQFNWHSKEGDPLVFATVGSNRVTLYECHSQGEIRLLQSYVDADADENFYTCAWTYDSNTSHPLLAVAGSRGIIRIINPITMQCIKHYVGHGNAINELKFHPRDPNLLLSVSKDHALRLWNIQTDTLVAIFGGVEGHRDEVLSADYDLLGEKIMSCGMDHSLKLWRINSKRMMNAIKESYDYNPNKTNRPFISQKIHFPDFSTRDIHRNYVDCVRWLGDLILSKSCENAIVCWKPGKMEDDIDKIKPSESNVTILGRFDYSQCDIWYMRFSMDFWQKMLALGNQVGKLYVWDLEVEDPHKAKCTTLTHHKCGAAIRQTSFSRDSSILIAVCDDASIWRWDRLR
Sequence of EZH1 (Q15022 whole entry partner, species assumed): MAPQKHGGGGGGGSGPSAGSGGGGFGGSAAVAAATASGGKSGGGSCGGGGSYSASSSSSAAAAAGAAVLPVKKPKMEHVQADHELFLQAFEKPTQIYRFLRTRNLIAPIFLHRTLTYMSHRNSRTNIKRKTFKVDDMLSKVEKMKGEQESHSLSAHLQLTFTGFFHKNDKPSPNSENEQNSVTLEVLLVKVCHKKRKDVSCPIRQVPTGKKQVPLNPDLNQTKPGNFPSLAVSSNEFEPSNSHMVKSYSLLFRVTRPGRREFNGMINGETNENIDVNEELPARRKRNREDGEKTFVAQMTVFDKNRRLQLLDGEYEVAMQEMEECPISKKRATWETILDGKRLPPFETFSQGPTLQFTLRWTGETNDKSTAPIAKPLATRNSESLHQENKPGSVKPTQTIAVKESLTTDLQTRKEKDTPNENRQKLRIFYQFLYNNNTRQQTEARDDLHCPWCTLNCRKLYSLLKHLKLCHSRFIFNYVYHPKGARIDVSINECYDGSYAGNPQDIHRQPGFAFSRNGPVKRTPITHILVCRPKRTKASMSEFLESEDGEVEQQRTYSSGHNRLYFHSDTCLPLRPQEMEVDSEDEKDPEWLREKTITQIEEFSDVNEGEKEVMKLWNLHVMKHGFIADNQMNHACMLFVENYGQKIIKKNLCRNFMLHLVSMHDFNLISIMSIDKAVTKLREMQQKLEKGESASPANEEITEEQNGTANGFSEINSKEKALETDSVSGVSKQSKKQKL
Sequence of EZH2 (Q15910 whole entry, species assumed): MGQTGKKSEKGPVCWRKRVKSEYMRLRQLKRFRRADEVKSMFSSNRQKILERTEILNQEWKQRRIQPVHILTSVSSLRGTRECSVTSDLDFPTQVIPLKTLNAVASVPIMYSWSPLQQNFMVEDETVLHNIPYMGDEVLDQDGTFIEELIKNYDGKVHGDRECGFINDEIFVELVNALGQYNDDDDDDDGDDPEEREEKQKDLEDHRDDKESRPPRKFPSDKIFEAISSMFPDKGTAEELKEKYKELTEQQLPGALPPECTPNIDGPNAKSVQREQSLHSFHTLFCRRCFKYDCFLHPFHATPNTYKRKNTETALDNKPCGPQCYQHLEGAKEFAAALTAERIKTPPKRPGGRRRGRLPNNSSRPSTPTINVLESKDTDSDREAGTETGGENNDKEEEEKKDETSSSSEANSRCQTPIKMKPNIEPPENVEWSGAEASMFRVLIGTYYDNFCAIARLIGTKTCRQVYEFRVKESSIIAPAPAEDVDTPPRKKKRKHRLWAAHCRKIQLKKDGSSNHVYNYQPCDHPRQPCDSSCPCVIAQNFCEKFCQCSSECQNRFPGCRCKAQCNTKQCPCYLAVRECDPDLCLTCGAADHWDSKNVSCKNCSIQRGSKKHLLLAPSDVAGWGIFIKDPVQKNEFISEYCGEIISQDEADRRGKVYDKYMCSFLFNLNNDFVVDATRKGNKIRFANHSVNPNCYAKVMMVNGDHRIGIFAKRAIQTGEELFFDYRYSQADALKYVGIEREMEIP
Sequence of EZH2 (O75530 whole entry partner, species assumed): as the sequence (O75530 whole entry partner, species assumed) above
Sequence of EZH2 (Q15022 whole entry partner, species assumed): as the sequence (Q15022 whole entry partner, species assumed) above

Regarding `CSc1cc(C)[nH]c(=O)c1CNC(=O)c1cc(-c2ccc(N3C[C@@H](C)O[C@@H](C)C3)nc2)c2c(c1C)OC(C)([C@H]1CC[C@H](N(C)CC(F)(F)F)CC1)O2` (stereo partly drawn) [Compound 20, 7-(6-((2S,6R)-2,6-dimethylmorpholino)pyridin-3-yl)-2,4-dimethyl-2-(trans-4-(methyl(2,2,2-trifluoroethyl)amino)cyclohexyl)-N-((6-methyl-4-(methylthio)-2-oxo-1,2-dihydropyridin-3-yl)methyl)benzo[d][1,3]dioxole-5-carboxamide], the inhibition – broadly, the relative decrease from the control value, in per cent – at 0.005 µM stood at 26.1% at EZH2 and 34.3% against EZH1. Moreover, the inhibition at 1 µM with MKN-45 cells was 30 to 70%; in the experiment on Lovo cells, no less than 70%; with SW-13 cells it was no more than 30%; in the experiment on G401 cells, 30 to 70%; with MIA-PaCa-2 cells it was no more than 30%; with NCI-H1299 cells it was no more than 30%.
As to `CSc1cc(C)[nH]c(=O)c1CNC(=O)c1cc(-c2cnc(N3C[C@@H](C)O[C@@H](C)C3)nc2)c2c(c1C)OC(C)([C@H]1CC[C@H](N(C)CC(F)(F)F)CC1)O2` (stereo partly drawn) [Compound 23, 7-(2-((2S,6R)-2,6-dimethylmorpholino)pyrimidin-5-yl)-2,4-dimethyl-2-(trans-4-(methyl(2,2,2-trifluoroethyl)amino)cyclohexyl)-N-((6-methyl-4-(methylthio)-2-oxo-1,2-dihydropyridin-3-yl)methyl)benzo[d][1,3]dioxole-5-carboxamide], the inhibition at 0.005 µM at EZH2 turned out to be 34.2%; on EZH1 it was 31.4%. The inhibition at 1 µM was no more than 30% in the experiment on MKN-45 cells; no less than 70% in the experiment on Lovo cells; no more than 30% in the experiment with SW-13 cells; 30 to 70% with G401 cells; no more than 30% with MIA-PaCa-2 cells; no more than 30% in the experiment with NCI-H1299 cells.
For `COCCN(C)[C@H]1CC[C@H](C2(C)Oc3c(-c4ccc(N5C[C@@H](C)O[C@@H](C)C5)nc4)cc(C(=O)NCc4c(SC)cc(C)[nH]c4=O)c(C)c3O2)CC1` (stereo partly drawn) [Compound 24, 7-(6-((2S,6R)-2,6-dimethylmorpholino)pyridin-3-yl)-2-(trans-4-((2-methoxyethyl)(methyl)amino)cyclohexyl)-2,4-dimethyl-N-((6-methyl-4-(methylthio)-2-oxo-1,2-dihydropyridin-3-yl)methyl)benzo[d][1,3]dioxole-5-carboxamide], the inhibition at 0.005 µM turned out to be 98.6% on EZH2 and 35.1% on EZH1. For the same compound, the inhibition at 1 µM with MKN-45 cells is no more than 30%; in the experiment with Lovo cells it was no less than 70%; in the experiment on SW-13 cells it was 30 to 70%; in the experiment on G401 cells it was 30 to 70%; with MIA-PaCa-2 cells, no more than 30%; with NCI-H1299 cells, no more than 30%.
`COCCN(C)[C@H]1CC[C@H](C2(C)Oc3c(-c4cnc(N5C[C@@H](C)O[C@@H](C)C5)nc4)cc(C(=O)NCc4c(SC)cc(C)[nH]c4=O)c(C)c3O2)CC1` (stereo partly drawn) [Compound 25, 7-(2-((2S,6R)-2,6-dimethylmorpholino)pyrimidin-5-yl)-2-(trans-4-((2-methoxyethyl)(methyl)amino)cyclohexyl)-2,4-dimethyl-N-((6-methyl-4-(methylthio)-2-oxo-1,2-dihydropyridin-3-yl)methyl)benzo[d][1,3]dioxole-5-carboxamide]: the inhibition at 0.005 µM against EZH2 amounted to 97.6%; against EZH1, 82.4%. The inhibition at 1 µM in the experiment with MKN-45 cells was no more than 30%; in the experiment with Lovo cells it was no less than 70%; in the experiment with SW-13 cells it was 30 to 70%; in the experiment on G401 cells it was 30 to 70%; in the experiment with MIA-PaCa-2 cells, no more than 30%; in the experiment with NCI-H1299 cells it was no more than 30%.
For `CSc1cc(C)[nH]c(=O)c1CNC(=O)c1cc(-c2ccc(N3C[C@@H](C)O[C@@H](C)C3)nc2)c2c(c1C)OC(C)([C@H]1CC[C@H](N(C)C[C@H](C)O)CC1)O2` (stereo partly drawn) [Compound 29, 7-(6-((2S,6R)-2,6-dimethylmorpholino)pyridin-3-yl)-2-(trans-4-(((S)-2-hydroxypropyl)(methyl)amino)cyclohexyl)-2,4-dimethyl-N-((6-methyl-4-(methylthio)-2-oxo-1,2-dihydropyridin-3-yl)methyl)benzo[d][1,3]dioxole-5-carboxamide], the inhibition at 0.005 µM is 98.3% at EZH2 and 91.6% against EZH1. The inhibition at 1 µM in the experiment on MKN-45 cells was no more than 30%; in the experiment with Lovo cells, no less than 70%; in the experiment with SW-13 cells it was 30 to 70%; in the experiment on G401 cells, 30 to 70%; in the experiment on MIA-PaCa-2 cells, no more than 30%; in the experiment with NCI-H1299 cells, no more than 30%.
As to `CCCOCCN(C)[C@H]1CC[C@H](C2(C)Oc3c(-c4ccc(N5C[C@@H](C)O[C@@H](C)C5)nc4)cc(C(=O)NCc4c(SC)cc(C)[nH]c4=O)c(C)c3O2)CC1` (stereo partly drawn) [Compound 30, 7-(6-((2S,6R)-2,6-dimethylmorpholino)pyridin-3-yl)-2,4-dimethyl-2-(trans-4-(methyl(2-propoxyethyl)amino)cyclohexyl)-N-((6-methyl-4-(methylthio)-2-oxo-1,2-dihydropyridin-3-yl)methyl)benzo[d][1,3]dioxole-5-carboxamide], the inhibition at 0.005 µM against EZH2 was 83.1%; against EZH1, 80.4%. Besides, the inhibition at 1 µM in the experiment on MKN-45 cells is 30 to 70%; in the experiment with Lovo cells, no less than 70%; in the experiment on SW-13 cells, 30 to 70%; in the experiment on G401 cells, 30 to 70%; in the experiment with MIA-PaCa-2 cells it was no more than 30%; with NCI-H1299 cells, no more than 30%.
For `COC(CN(C)[C@H]1CC[C@H](C2(C)Oc3c(-c4ccc(N5C[C@@H](C)O[C@@H](C)C5)nc4)cc(C(=O)NCc4c(SC)cc(C)[nH]c4=O)c(C)c3O2)CC1)OC` (stereo partly drawn) [Compound 31, 2-(trans-4-((2,2-dimethoxyethyl)(methyl)amino)cyclohexyl)-7-(6-((2S,6R)-2,6-dimethylmorpholino)pyridin-3-yl)-2,4-dimethyl-N-((6-methyl-4-(methylthio)-2-oxo-1,2-dihydropyridin-3-yl)methyl)benzo[d][1,3]dioxole-5-carboxamide], the inhibition at 0.005 µM turned out to be 75.6% against EZH2 and 67.3% on EZH1. Besides, the inhibition at 1 µM was 30 to 70% in the experiment with MKN-45 cells; no less than 70% in the experiment with Lovo cells; 30 to 70% with SW-13 cells; 30 to 70% in the experiment with G401 cells; no more than 30% with MIA-PaCa-2 cells; no more than 30% in the experiment with NCI-H1299 cells.
`CSc1cc(C)[nH]c(=O)c1CNC(=O)c1cc(-c2ccc(N3C[C@@H](C)O[C@@H](C)C3)nc2)c2c(c1C)OC(C)([C@H]1CC[C@H](N(C)CC3OCCO3)CC1)O2` (stereo partly drawn) [Compound 32, 2-(trans-4-(((1,3-dioxolan-2-yl)methyl)(methyl)amino)cyclohexyl)-7-(6-((2S,6R)-2,6-dimethylmorpholino)pyridin-3-yl)-2,4-dimethyl-N-((6-methyl-4-(methylthio)-2-oxo-1,2-dihydropyridin-3-yl)methyl)benzo[d][1,3]dioxole-5-carboxamide]: the inhibition at 0.005 µM turned out to be 82.6% against EZH2 and 74.1% at EZH1. Moreover, the inhibition at 1 µM in the experiment on MKN-45 cells was 30 to 70%; in the experiment on Lovo cells, no less than 70%; with SW-13 cells it was 30 to 70%; with G401 cells it was 30 to 70%; in the experiment with MIA-PaCa-2 cells it was no more than 30%; with NCI-H1299 cells, 30 to 70%.
For `CSc1cc(C)[nH]c(=O)c1CNC(=O)c1cc(-c2ccc(N3C[C@@H](C)O[C@@H](C)C3)nc2)c2c(c1C)OC(C)(C1CCN(CC(F)(F)F)CC1)O2` (stereo partly drawn) [Compound 33, 7-(6-((2S,6R)-2,6-dimethylmorpholino)pyridin-3-yl)-2,4-dimethyl-N-((6-methyl-4-(methylthio)-2-oxo-1,2-dihydropyridin-3-yl)methyl)-2-(1-(2,2,2-trifluoroethyl)piperidin-4-yl)benzo[d][1,3]dioxole-5-carboxamide], the inhibition at 0.005 µM at EZH2 was determined as 59.1%; on EZH1 it was 37.6%. Moreover, the inhibition at 1 µM in the experiment on MKN-45 cells is 30 to 70%; in the experiment with Lovo cells, no less than 70%; in the experiment on SW-13 cells it was 30 to 70%; in the experiment with G401 cells, no less than 70%; with MIA-PaCa-2 cells, no more than 30%; in the experiment on NCI-H1299 cells, no more than 30%.
For `CSc1cc(C)[nH]c(=O)c1CNC(=O)c1cc(-c2ccc(N3CCSCC3)nc2)c2c(c1C)OC(C)(C1CCN(CC(F)(F)F)CC1)O2` (centres unmarked) [Compound 34, 2,4-dimethyl-N-((6-methyl-4-(methylthio)-2-oxo-1,2-dihydropyridin-3-yl)methyl)-7-(6-thiomorpholinopyridin-3-yl)-2-(1-(2,2,2-trifluoroethyl)piperidin-4-yl)benzo[d][1,3]dioxole-5-carboxamide], the inhibition at 0.005 µM was 41.1% on EZH2 and 24.9% at EZH1. Further, the inhibition at 1 µM with MKN-45 cells was no more than 30%; in the experiment on Lovo cells, no less than 70%; with SW-13 cells, no more than 30%; with G401 cells it was 30 to 70%; in the experiment with MIA-PaCa-2 cells it was no more than 30%; with NCI-H1299 cells, no more than 30%.
